From US20260144788A1, “COMPOUND FOR SHP2 PROTEIN DEGRADATION AND MEDICAL USES THEREOF” (UBIX THERAPEUTICS, INC., priority 2022, published 2026)

Target: T1, SHP2 protein (Homo sapiens, UniProt Q06124)
T1 sequence (Q06124 1-593): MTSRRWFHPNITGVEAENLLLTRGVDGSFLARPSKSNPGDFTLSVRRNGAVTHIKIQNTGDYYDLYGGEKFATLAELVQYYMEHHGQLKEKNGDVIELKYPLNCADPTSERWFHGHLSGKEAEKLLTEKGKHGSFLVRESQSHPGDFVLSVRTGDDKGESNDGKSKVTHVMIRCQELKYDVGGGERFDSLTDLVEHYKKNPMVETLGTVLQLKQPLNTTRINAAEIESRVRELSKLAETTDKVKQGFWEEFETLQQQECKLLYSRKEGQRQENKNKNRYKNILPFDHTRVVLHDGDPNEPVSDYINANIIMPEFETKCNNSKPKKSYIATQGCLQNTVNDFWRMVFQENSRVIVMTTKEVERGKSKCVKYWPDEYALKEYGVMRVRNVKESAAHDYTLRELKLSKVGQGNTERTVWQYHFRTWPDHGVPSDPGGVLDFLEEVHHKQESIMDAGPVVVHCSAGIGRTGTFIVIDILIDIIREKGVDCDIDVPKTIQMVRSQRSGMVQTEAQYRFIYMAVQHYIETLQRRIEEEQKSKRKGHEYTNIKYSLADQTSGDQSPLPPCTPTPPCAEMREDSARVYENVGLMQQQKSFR
Assay: Measurement of SHP2 protein degradation in MV-4-11 cells (western blotting)
Format: cell-based
Parameters: endogenous in cells
Settings: harvested after 24 hours
Method in brief: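 MV-4-11 cells in IMDM/5% FBS were exposed to compound at final 0.01, 0.1, 1 μM or 0.001, 0.01, 0.1 μM for 24 h, DMSO as negative control. BCA-normalised lysates were immunoblotted for SHP2 with GAPDH as loading control, read on LI-COR Odyssey.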

SMILES	SHP2% degradation (0.01 μM)	SHP2% degradation (0.1 μM)
Cc1ncsc1-c1ccc(CNC(=O)[C@@H]2C[C@@H](O)CN2C(=O)[C@@H](NC(=O)C2(F)CC2)C(C)(C)C)c(OCCN2CCN(C(=O)C3CN(c4nccc(Sc5cnc(N6CCC(C)(CN)CC6)cn5)c4Cl)C3)CC2)c1 [Example 53, (2S,4R)—N-(2-(2-(4-(1-(4-((5-(4-(aminomethyl)-4-methylpiperidin-1-yl)pyrazin-2-yl)thio)-3-chloropyridin-2-yl)azetidine-3-carbonyl)piperazin-1-yl)ethoxy)-4-(4-methylthiazol-5-yl)benzyl)-1-((S)-2-(1-fluorocyclopropane-1-carboxamido)-3,3-dimethylbutanoyl)-4-hydroxypyrrolidine-2-carboxamide]	70.4%	99.4%
Cc1ncsc1-c1ccc(CNC(=O)[C@@H]2C[C@@H](O)CN2C(=O)[C@@H](NC(=O)C2(F)CC2)C(C)(C)C)c(OCCN2CCN(C(=O)C3CCN(c4nccc(Sc5cnc(N6CCC(C)(CN)CC6)cn5)c4Cl)CC3)CC2)c1 [Example 54, (2S,4R)—N-(2-(2-(4-(1-(4-((5-(4-(aminomethyl)-4-methylpiperidin-1-yl)pyrazin-2-yl)thio)-3-chloropyridin-2-yl)piperidine-4-carbonyl)piperazin-1-yl)ethoxy)-4-(4-methylthiazol-5-yl)benzyl)-1-((S)-2-(1-fluorocyclopropane-1-carboxamido)-3,3-dimethylbutanoyl)-4-hydroxypyrrolidine-2-carboxamide]	69.4%	99.3%
Cc1ncsc1-c1ccc(CNC(=O)[C@@H]2C[C@@H](O)CN2C(=O)[C@@H](NC(=O)C2(F)CC2)C(C)(C)C)c(OCCC2CCN(C(=O)C3CN(c4nccc(Sc5cnc(N6CCC(C)(CN)CC6)cn5)c4Cl)C3)CC2)c1 [Example 55, (2S,4R)—N-(2-(2-(1-(1-(4-((5-(4-(aminomethyl)-4-methylpiperidin-1-yl)pyrazin-2-yl)thio)-3-chloropyridin-2-yl)azetidine-3-carbonyl)piperidin-4-yl)ethoxy)-4-(4-methylthiazol-5-yl)benzyl)-1-((S)-2-(1-fluorocyclopropane-1-carboxamido)-3,3-dimethylbutanoyl)-4-hydroxypyrrolidine-2-carboxamide]	27.5%	95.0%
Cc1ncsc1-c1ccc(CNC(=O)[C@@H]2C[C@@H](O)CN2C(=O)[C@@H](NC(=O)C2(F)CC2)C(C)(C)C)c(OCCC2CCN(C(=O)C3CCN(c4nccc(Sc5cnc(N6CCC(C)(CN)CC6)cn5)c4Cl)CC3)CC2)c1 [Example 56, (2S,4R)—N-(2-(2-(1-(1-(4-((5-(4-(aminomethyl)-4-methylpiperidin-1-yl)pyrazin-2-yl)thio)-3-chloropyridin-2-yl)piperidine-4-carbonyl)piperidin-4-yl)ethoxy)-4-(4-methylthiazol-5-yl)benzyl)-1-((S)-2-(1-fluorocyclopropane-1-carboxamido)-3,3-dimethylbutanoyl)-4-hydroxypyrrolidine-2-carboxamide]	55.8%	98.6%
Cc1ncsc1-c1ccc(CNC(=O)[C@@H]2C[C@@H](O)CN2C(=O)[C@@H](NC(=O)C2(F)CC2)C(C)(C)C)c(OC2CC3(CCN(C(=O)C4CCN(c5nccc(Sc6cnc(N7CCC(C)(CN)CC7)cn6)c5Cl)CC4)CC3)C2)c1 [Example 57, (2S,4R)—N-(2-((7-(1-(4-((5-(4-(aminomethyl)-4-methylpiperidin-1-yl)pyrazin-2-yl)thio)-3-chloropyridin-2-yl)piperidine-4-carbonyl)-7-azaspiro[3.5]nonan-2-yl)oxy)-4-(4-methylthiazol-5-yl)benzyl)-1-((S)-2-(1-fluorocyclopropane-1-carboxamido)-3,3-dimethylbutanoyl)-4-hydroxypyrrolidine-2-carboxamide]	65.7%	96.8%

The next lines start with the values.

SHP2% degradation (0.01 μM)	SHP2% degradation (0.1 μM)	SMILES
82.0%	97.7%	Cc1ncsc1-c1ccc(CNC(=O)[C@@H]2C[C@@H](O)CN2C(=O)[C@@H](NC(=O)C2(F)CC2)C(C)(C)C)c(OCC2CCN(C(=O)C3CCN(c4nccc(Sc5cnc(N6CCC(C)(CN)CC6)cn5)c4Cl)CC3)CC2)c1 [Example 58, (2S,4R)—N-(2-((1-(1-(4-((5-(4-(aminomethyl)-4-methylpiperidin-1-yl)pyrazin-2-yl)thio)-3-chloropyridin-2-yl)piperidine-4-carbonyl)piperidin-4-yl)methoxy)-4-(4-methylthiazol-5-yl)benzyl)-1-((S)-2-(1-fluorocyclopropane-1-carboxamido)-3,3-dimethylbutanoyl)-4-hydroxypyrrolidine-2-carboxamide]
81.7%	99.5%	Cc1ncsc1-c1ccc(CNC(=O)[C@@H]2C[C@@H](O)CN2C(=O)[C@@H](NC(=O)C2(F)CC2)C(C)(C)C)c(OC2CCN(C(=O)[C@H]3C[C@@H](Nc4nccc(Sc5cnc(N6CCC(C)(CN)CC6)cn5)c4Cl)C3)CC2)c1 [Example 59, (2S,4R)—N-(2-((1-((1s,3R)-3-((4-((5-(4-(aminomethyl)-4-methylpiperidin-1-yl)pyrazin-2-yl)thio)-3-chloropyridin-2-yl)amino)cyclobutanecarbonyl)piperidin-4-yl)oxy)-4-(4-methylthiazol-5-yl)benzyl)-1-((S)-2-(1-fluorocyclopropane-1-carboxamido)-3,3-dimethylbutanoyl)-4-hydroxypyrrolidine-2-carboxamide]
81.5%	99.3%	Cc1ncsc1-c1ccc(CNC(=O)[C@@H]2C[C@@H](O)CN2C(=O)[C@@H](NC(=O)C2(F)CC2)C(C)(C)C)c(OC2CCN(C(=O)[C@H]3C[C@@H](Nc4nccc(Sc5cnc(N6CCC(C)(N)CC6)cn5)c4Cl)C3)CC2)c1 [Example 60, (2S,4R)—N-(2-((1-((1S,3R)-3-((4-((5-(4-amino-4-methylpiperidin-1-yl)pyrazin-2-yl)thio)-3-chloropyridin-2-yl)amino)cyclobutanecarbonyl)piperidin-4-yl)oxy)-4-(4-methylthiazol-5-yl)benzyl)-1-((S)-2-(1-fluorocyclopropane-1-carboxamido)-3,3-dimethylbutanoyl)-4-hydroxypyrrolidine-2-carboxamide]
80.3%	99.3%	Cc1ncsc1-c1ccc(CNC(=O)[C@@H]2C[C@@H](O)CN2C(=O)[C@@H](NC(=O)C2(F)CC2)C(C)(C)C)c(OC2CCN(C(=O)[C@H]3C[C@H](Nc4nccc(Sc5cnc(N6CCC(C)(CN)CC6)cn5)c4Cl)C3)CC2)c1 [Example 61, (2S,4R)—N-(2-((1-((1r,3S)-3-((4-((5-(4-(aminomethyl)-4-methylpiperidin-1-yl)pyrazin-2-yl)thio)-3-chloropyridin-2-yl)amino)cyclobutanecarbonyl)piperidin-4-yl)oxy)-4-(4-methylthiazol-5-yl)benzyl)-1-((S)-2-(1-fluorocyclopropane-1-carboxamido)-3,3-dimethylbutanoyl)-4-hydroxypyrrolidine-2-carboxamide]
